Consider 17 molecules from patent US20240109898A1, “SUBSTITUTED PYRAZOLO[1,5-A]PYRIMIDINE-7-AMINE DERIVATIVES, COMPOSITIONS AND PHARMACEUTICAL USES THEREOF” (SHANGHAI HAIYAN PHARMACEUTICAL TECHNOLOGY CO., LTD., priority 2021, published 2024).

Usually IC50 stands for the midpoint of a concentration-inhibition curve. The low end stands for greater potency, the high end for weaker potency.

Structures are written as SMILES.

Chain of CDK1/CycB (P06493 whole entry): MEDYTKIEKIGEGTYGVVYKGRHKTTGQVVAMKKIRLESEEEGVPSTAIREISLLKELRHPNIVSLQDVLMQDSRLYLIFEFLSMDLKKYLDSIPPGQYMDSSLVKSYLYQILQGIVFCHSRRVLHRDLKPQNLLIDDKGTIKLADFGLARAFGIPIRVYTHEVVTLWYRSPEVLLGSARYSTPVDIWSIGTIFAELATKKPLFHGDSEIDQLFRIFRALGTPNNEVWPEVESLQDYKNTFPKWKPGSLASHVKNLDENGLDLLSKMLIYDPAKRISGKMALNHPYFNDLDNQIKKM
Chain of CDK1/CycB (P14635 whole entry partner): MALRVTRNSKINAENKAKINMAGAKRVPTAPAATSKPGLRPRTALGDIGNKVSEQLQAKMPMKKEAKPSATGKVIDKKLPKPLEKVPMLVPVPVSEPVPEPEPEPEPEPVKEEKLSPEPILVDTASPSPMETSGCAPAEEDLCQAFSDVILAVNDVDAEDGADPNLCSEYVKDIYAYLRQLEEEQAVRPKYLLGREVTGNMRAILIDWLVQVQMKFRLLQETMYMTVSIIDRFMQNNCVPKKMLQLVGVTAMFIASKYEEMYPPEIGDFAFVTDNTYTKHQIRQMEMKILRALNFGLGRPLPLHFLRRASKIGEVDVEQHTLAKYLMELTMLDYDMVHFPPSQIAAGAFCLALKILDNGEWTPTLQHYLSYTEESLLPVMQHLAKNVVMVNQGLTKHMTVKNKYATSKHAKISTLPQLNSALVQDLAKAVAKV
Chain of CDK9/CycT (P50750 whole entry): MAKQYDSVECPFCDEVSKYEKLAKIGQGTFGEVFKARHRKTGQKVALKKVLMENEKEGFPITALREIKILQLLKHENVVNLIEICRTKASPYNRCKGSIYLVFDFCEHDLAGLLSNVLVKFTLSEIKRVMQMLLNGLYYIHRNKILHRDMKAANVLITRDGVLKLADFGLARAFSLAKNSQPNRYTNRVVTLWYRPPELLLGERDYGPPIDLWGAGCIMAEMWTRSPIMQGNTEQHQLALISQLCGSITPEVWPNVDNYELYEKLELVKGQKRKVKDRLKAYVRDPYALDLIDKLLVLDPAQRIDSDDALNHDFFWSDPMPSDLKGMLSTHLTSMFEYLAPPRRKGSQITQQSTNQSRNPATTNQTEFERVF
Chain of CDK9/CycT (O60563 whole entry partner): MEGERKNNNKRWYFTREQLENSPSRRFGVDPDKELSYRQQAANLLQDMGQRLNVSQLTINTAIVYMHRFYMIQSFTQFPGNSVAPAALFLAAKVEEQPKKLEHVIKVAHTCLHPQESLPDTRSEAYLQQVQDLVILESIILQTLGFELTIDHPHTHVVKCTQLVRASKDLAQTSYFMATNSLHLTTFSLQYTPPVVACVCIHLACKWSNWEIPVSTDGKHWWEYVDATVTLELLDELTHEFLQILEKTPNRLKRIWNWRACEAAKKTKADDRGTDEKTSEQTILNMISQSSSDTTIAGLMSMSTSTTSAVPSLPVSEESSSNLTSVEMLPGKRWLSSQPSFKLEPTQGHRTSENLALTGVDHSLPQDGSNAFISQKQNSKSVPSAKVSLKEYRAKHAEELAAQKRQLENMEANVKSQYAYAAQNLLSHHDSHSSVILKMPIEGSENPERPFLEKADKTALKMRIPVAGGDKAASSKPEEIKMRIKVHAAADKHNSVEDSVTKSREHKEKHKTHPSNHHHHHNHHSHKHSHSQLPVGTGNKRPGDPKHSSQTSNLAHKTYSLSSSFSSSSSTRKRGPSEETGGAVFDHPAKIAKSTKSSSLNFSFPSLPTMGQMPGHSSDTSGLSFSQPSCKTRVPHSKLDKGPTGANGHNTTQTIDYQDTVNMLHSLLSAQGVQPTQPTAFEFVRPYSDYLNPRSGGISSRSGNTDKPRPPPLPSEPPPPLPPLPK

For the first assay, the target named is CDK1/CycB (Homo sapiens (Human), UniProt P06493). Put plainly: LANCE Ultra kinase activity inhibition assay, CDK1/CycB. It is filed as biochemical. To be noted: ATP 4 μM, highest compound concentration 10 μM. An excerpt:
(§1) In the following LANCE Ultra test methods, kinase reagents were purchased from Carna Bioscience, reaction substrates and detection reagents were purchased from PerkinElmer, and the remaining reagents were purchased from Thermo scientific.
(§2) The assay for each kinase includes three test groups, i.e., a background group (Blank), a non-inhibition group (PC), and compound testing group (Test). The components included in each test group were as follows:
(§3) Working concentrations of the respective components of the Test groups in different kinase reactions were as follows.
(§4) Compounds: 10 mM of the compound to be tested was dissolved at room temperature and diluted with DMSO to gradient concentrations, followed by diluting with deionized water to prepare a 4× working solution of the compound, and the content of DMSO was 2%. The highest concentration of compound used in the CDK1 and CDK2 assays was 10 μM, and that in CDK9 assay was 1 μM.
(§5) The working concentration of DMSO in the reaction was 0.5%.
(§6) The above-mentioned components, after being mixed, were placed on a shaker and incubated at room temperature in the dark for 1 h. 10 μL of test solution was then added to all test groups (including Blank, PC and Test groups).
(§7) After the test solution was added, the solution was placed on a shaker and continually incubated at room temperature for 1 h in the dark. […] The inhibition rate was calculated as below.
(§8) 2. Inhibition rate=(PCRatio-TestRatio)/(PCRatio-BlankRatio)*100%; and
(§9) 3. XLFIT 5.0 software (IDBS, UK) was used to fit a graph by using the logarithmic value of the compound concentration as the X-axis and the inhibition rater as the Y-axis, and a four-parameter model was used to calculate the half inhibitory concentration IC50 of the compound.
Background: In TR-FRET formats the signal depends on donor and acceptor labels being close together.
`CC1(Cc2cc(N[C@H]3CC[C@H](N)C3)n3nccc3n2)CC1` [Compound Z-17] yielded a 50% inhibitory concentration (IC50) of 8.45 µM.
As to `C=CC(C)(C)c1cc(N[C@H]2CC[C@H](N)C2)n2ncc(F)c2n1` [Compound Z-58], inhibition was half-maximal at 5.31 µM (IC50).
The same measure, in the same setting: as for `CCc1cnn2c(N[C@H]3CC[C@H](N)C3)cc(C(C)C3CC3)nc12` (stereo partly drawn) [Compound Z-20], the figure is 2.42 µM; as for `CC(c1cc(N[C@H]2CC[C@H](N)CC2)n2nccc2n1)C1CC1` (stereo partly drawn) [Compound Z-21], 4.37 µM; as for `N[C@H]1CC[C@H](Nc2cc(C(C3CC3)C3CC3)nc3c(Cl)cnn23)C1` [Compound Z-2], 0.161 µM.
`CC[C@H](c1cc(N[C@H]2CC[C@H](N)C2)n2ncc(C)c2n1)C1CC1` [Compound Z-30-P1] returned an IC50 of 1.12 µM.
The same measure, in the same setting: as for `CC(c1cc(N[C@H]2CC[C@H](N)C2)n2nccc2n1)(C1CC1)C1CC1` [Compound Z-22], the figure is 1.77 µM.
On to `CC(=N)N[C@H]1CC[C@H](Nc2cc(C(C3CC3)C3CC3)nc3c(C(F)(F)F)cnn23)C1` [Compound Z-68], for which half-maximal inhibition (IC50) required 3.47 µM.
Turning to `Cc1cnn2c(N[C@H]3CC[C@H](N)C3)cc(CC3CCC3)nc12` [Compound Z-51], the IC50 worked out at 7.76 µM.
Still for that read-out and setting: as for `N[C@H]1CC[C@H](Nc2cc([C@H](F)C3CCC3)nc3ccnn23)C1` [Compound Z-41-P2], the figure is 2.97 µM; as for `C[C@H](c1cc(N[C@H]2CC[C@H](N)C2)n2nccc2n1)C1(C)CC1` [Compound Z-27-P2], 2.08 µM; as for `Cc1cnn2c(N[C@H]3CC[C@H](N)C3)cc(C(C)C3(C)CC3)nc12` (stereo partly drawn) [Compound Z-26], 3.92 µM.
`CC(C)(c1cc(N[C@H]2CC[C@H](N)C2)n2ncc(Cl)c2n1)C1CC1` [Compound Z-35]: the IC50 came to 1.5 µM.
As to `N[C@H]1CC[C@H](Nc2cc(C(F)C3CCCC3)nc3ccnn23)C1` (stereo partly drawn) [Compound Z-42], the IC50 was determined as 3.3 µM.
The same measure, in the same setting: as for `CC(=N)N[C@H]1CC[C@H](Nc2cc(C(C)C3CC3)nc3c(Cl)cnn23)C1` (stereo partly drawn) [Compound Z-64], the figure is 2.31 µM; as for `N[C@H]1CC[C@H](Nc2cc(C(C3CC3)C3CC3)nc3c(C4CC4)cnn23)C1` [Compound Z-14], 1.61 µM.
Still for that read-out and setting: as for `CC1(Cc2cc(N[C@H]3CC[C@H](N)C3)n3ncc(Cl)c3n2)CC1` [Compound Z-29], the figure is 1.89 µM.

For a further assay, the target named is CDK2/CycA (Homo sapiens (Human), UniProt P24941). The assay can be described thus: LANCE Ultra kinase activity inhibition assay, CDK2/CycA. It is filed as biochemical. To be noted: ATP 10 μM, highest compound concentration 10 μM.
Text: as §1, §2, §3, §4, §5, §6, §7, §8, §9
`CC1(Cc2cc(N[C@H]3CC[C@H](N)C3)n3nccc3n2)CC1` [Compound Z-17] gave an IC50 above 10 µM.
Turning to `C=CC(C)(C)c1cc(N[C@H]2CC[C@H](N)C2)n2ncc(F)c2n1` [Compound Z-58], the IC50 was above 10 µM.
On the same count and under the same terms, as for `CCc1cnn2c(N[C@H]3CC[C@H](N)C3)cc(C(C)C3CC3)nc12` (stereo partly drawn) [Compound Z-20], the figure is 4.39 µM; as for `CC(c1cc(N[C@H]2CC[C@H](N)CC2)n2nccc2n1)C1CC1` (stereo partly drawn) [Compound Z-21], 3.29 µM; as for `N[C@H]1CC[C@H](Nc2cc(C(C3CC3)C3CC3)nc3c(Cl)cnn23)C1` [Compound Z-2], 0.191 µM.
In the case of `CC[C@H](c1cc(N[C@H]2CC[C@H](N)C2)n2ncc(C)c2n1)C1CC1` [Compound Z-30-P1], the IC50 was determined as 0.968 µM.
Same read-out and setting: the same measure for `CC(c1cc(N[C@H]2CC[C@H](N)C2)n2nccc2n1)(C1CC1)C1CC1` [Compound Z-22]: 8.64 µM; for `CC(=N)N[C@H]1CC[C@H](Nc2cc(C(C3CC3)C3CC3)nc3c(C(F)(F)F)cnn23)C1` [Compound Z-68]: 4.68 µM.
Same read-out and setting: the same measure for `Cc1cnn2c(N[C@H]3CC[C@H](N)C3)cc(CC3CCC3)nc12` [Compound Z-51]: 7.75 µM; for `N[C@H]1CC[C@H](Nc2cc([C@H](F)C3CCC3)nc3ccnn23)C1` [Compound Z-41-P2]: 3.77 µM.
Still for that read-out and setting: the same measure for `C[C@H](c1cc(N[C@H]2CC[C@H](N)C2)n2nccc2n1)C1(C)CC1` [Compound Z-27-P2]: 2.78 µM; for `Cc1cnn2c(N[C@H]3CC[C@H](N)C3)cc(C(C)C3(C)CC3)nc12` (stereo partly drawn) [Compound Z-26]: 7.06 µM; for `CC(C)(c1cc(N[C@H]2CC[C@H](N)C2)n2ncc(Cl)c2n1)C1CC1` [Compound Z-35]: 1.56 µM.
`N[C@H]1CC[C@H](Nc2cc(C(F)C3CCCC3)nc3ccnn23)C1` (stereo partly drawn) [Compound Z-42]: the IC50 stood at 8.5 µM. Compared with the last molecule, the IC50 is about 5.4-fold higher.
On the same count and under the same terms, the same measure for `CC(=N)N[C@H]1CC[C@H](Nc2cc(C(C)C3CC3)nc3c(Cl)cnn23)C1` (stereo partly drawn) [Compound Z-64]: 3.46 µM; for `N[C@H]1CC[C@H](Nc2cc(C(C3CC3)C3CC3)nc3c(C4CC4)cnn23)C1` [Compound Z-14]: 2.55 µM.
The same measure, in the same setting: the same measure for `CC1(Cc2cc(N[C@H]3CC[C@H](N)C3)n3ncc(Cl)c3n2)CC1` [Compound Z-29]: 2.06 µM.

Another assay deals with CDK9/CycT (Homo sapiens (Human), UniProt P50750). Put plainly: LANCE Ultra kinase activity inhibition assay, CDK9/CycT. Format: biochemical. To be noted: ATP 10 μM, highest compound concentration 1 μM. How it is done:
as §1
The inhibiting effects on the kinase activity of CDK1/CycB (Carna bioscience, #04-102), CDK2/CycA (Carna bioscience, #04-103) and CDK9/CycT (Carna bioscience, #04-110) were determined by using LANCE Ultra method.
The kinase activity test was performed using a system (10 μL) containing the following components: substrate diluent prepared by mixing CDK kinase diluent, Ulight-Myelic basic protein (Perkin Elmer, #TRF-0109, hereinafter referred to as U-MBP) and ATP (Thermo scientific, #PV3227); and the compounds (i.e., analyte) prepared in the examples of the present disclosure. The assay for each kinase includes three test groups, i.e., a background group (Blank), a non-inhibition group (PC), and compound testing group (Test). The components included in each test group were as follows:
as §3, §4
1.33×reaction buffer: the components include 26.7 mM of MOPS, 6.67 mM of MgCl2, and 0.0133% Tween-20, which were stored in a 4° C. refrigerator and protected from light after preparation. Freshly prepared DTT was added to a final concentration of 5.33 mM before use.
as §5, §6
10 μL of test solution contains the following components: 16 mM of EDTA (Thermo scientific, #15575), 1 nM of phosphorylated U-MBP protein antibody (Perkin Elmer, #TRF-0201), and 1× detection damping fluid (Perkin Elmer, #CR97-100).
After the test solution was added, the solution was placed on a shaker and continually incubated at room temperature for 1 h in the dark. At the end of incubation, Victor X5 fluorescence microplate reader of Perkin Elmer was used to read the signal; the wavelength of excitation light was 320 nm, and the wavelengths of emission light were 615 nm and 665 nm. The inhibition rate was calculated as below.
1. For all groups, a value of 665 nm/615 nm (hereinafter referred to as Ratio) was calculated, and an inhibition rate was calculated based on the Ratio of each group;
as §8, §9
With `CC1(Cc2cc(N[C@H]3CC[C@H](N)C3)n3nccc3n2)CC1` [Compound Z-17], the IC50 came out at 0.06 µM. In other words, the double-digit nanomolar range.
On the same count and under the same terms, the same measure for `C=CC(C)(C)c1cc(N[C@H]2CC[C@H](N)C2)n2ncc(F)c2n1` [Compound Z-58]: 0.02 µM.
Same read-out and setting: the same measure for `CCc1cnn2c(N[C@H]3CC[C@H](N)C3)cc(C(C)C3CC3)nc12` (stereo partly drawn) [Compound Z-20]: 0.034 µM; for `CC(c1cc(N[C@H]2CC[C@H](N)CC2)n2nccc2n1)C1CC1` (stereo partly drawn) [Compound Z-21]: 0.029 µM; for `N[C@H]1CC[C@H](Nc2cc(C(C3CC3)C3CC3)nc3c(Cl)cnn23)C1` [Compound Z-2]: 0.006 µM.
The same measure, in the same setting: as for `CC[C@H](c1cc(N[C@H]2CC[C@H](N)C2)n2ncc(C)c2n1)C1CC1` [Compound Z-30-P1], the figure is 0.01 µM.
`CC(c1cc(N[C@H]2CC[C@H](N)C2)n2nccc2n1)(C1CC1)C1CC1` [Compound Z-22]: the IC50 turned out to be 0.013 µM.
On to `CC(=N)N[C@H]1CC[C@H](Nc2cc(C(C3CC3)C3CC3)nc3c(C(F)(F)F)cnn23)C1` [Compound Z-68], for which the IC50 turned out to be 0.025 µM. This IC50 lies about 1.9-fold higher than the previous one.
On to `Cc1cnn2c(N[C@H]3CC[C@H](N)C3)cc(CC3CCC3)nc12` [Compound Z-51], for which the IC50 amounted to 0.065 µM.
The molecule `N[C@H]1CC[C@H](Nc2cc([C@H](F)C3CCC3)nc3ccnn23)C1` [Compound Z-41-P2] gave an IC50 of 0.013 µM.
Still for that read-out and setting: as for `C[C@H](c1cc(N[C@H]2CC[C@H](N)C2)n2nccc2n1)C1(C)CC1` [Compound Z-27-P2], the figure is 0.008 µM; as for `Cc1cnn2c(N[C@H]3CC[C@H](N)C3)cc(C(C)C3(C)CC3)nc12` (stereo partly drawn) [Compound Z-26], 0.026 µM.
The same measure, in the same setting: the same measure for `CC(C)(c1cc(N[C@H]2CC[C@H](N)C2)n2ncc(Cl)c2n1)C1CC1` [Compound Z-35]: 0.018 µM; for `N[C@H]1CC[C@H](Nc2cc(C(F)C3CCCC3)nc3ccnn23)C1` (stereo partly drawn) [Compound Z-42]: 0.022 µM; for `CC(=N)N[C@H]1CC[C@H](Nc2cc(C(C)C3CC3)nc3c(Cl)cnn23)C1` (stereo partly drawn) [Compound Z-64]: 0.015 µM.
In turn, `N[C@H]1CC[C@H](Nc2cc(C(C3CC3)C3CC3)nc3c(C4CC4)cnn23)C1` [Compound Z-14] yielded an IC50 of 0.042 µM. This IC50 is about 2.8-fold higher than that of the molecule before.
Still for that read-out and setting: the same measure for `CC1(Cc2cc(N[C@H]3CC[C@H](N)C3)n3ncc(Cl)c3n2)CC1` [Compound Z-29]: 0.011 µM.
